From paper PMC10478803, “Contributions of the N-terminal flanking residues of an antigenic peptide from the Japanese cedar pollen allergen Cry j 1 to the T-cell activation by HLA-DP5” (International Immunology, 2023)
Entries after “also recorded” stand apart in the source; their conditions may differ. Each block holds one molecule with its values, some of them ahead of it.

Tests used:
[1] = system: HLA-DP5 expressed on mDC1 cells; assay: Cell-surface peptide-display assay on HLA-DP5-expressing mDC1 cells; details: 3.5 h at 37°C
[2] = system: CD4^+ T cells; assay: CFSE assay of CD4^+ T-cell proliferation in PBMCs of HLA-DP5^+ CP patients; assay type: cell-based, human; details: PBMCs from HLA-DP5^+ CP patients
Description: Peripheral blood was obtained from HLA-DP5^+ CP patients. Peripheral blood mononuclear cells (PBMCs) were isolated by a density gradient technique, using Ficoll-Paque PLUS. The research protocol for collecting and using PBMCs from allergic patients was approved by the Institutional Review Board of Kyushu University.
The CFSE assay was performed as described previously ([24]). Briefly, PBMCs (1.0 × 10^7 cells ml^−1 in PBS) were incubated for 10 min with 5 μM CFSE (Molecular Probes). Staining was terminated by adding PBS containing 5% pooled human serum, and after the cells were washed three times in PBS containing 1% pooled human serum, they were resuspended in culture medium (RPMI-1640 containing 5% pooled human serum) at 2.0 × 10^6 cells ml^−1. Stained cells (2.0 × 10^6 cells well^−1, 1 ml) were cultured in 24-well plates with medium alone, pCj1 (final concentration, 10 μg ml^−1), or NF-pCj1 (10 μg ml^−1). After 7 days, the cells treated with each antigen were pooled, washed in PBS, and stained with anti-human CD4-allophycocyanin (IgG1, clone RPA-T4, BioLegend) and 7-amino-actinomycin D (7-AAD) (BD Pharmingen). Antigen-specific, viable CD4^+ T cells were identified as 7AAD^−, CD4^+, CFSE^dim cells, and the proliferation levels of these antigen-specific CD4^+ T cells were examined in each experiment.

[3] = system: CD4^+ T-cell clones (SU3–2, SU3–3, NM-4, and NM-7); assay: ^3H-thymidine incorporation assay of T-cell clone proliferation; assay type: cell-based, human; details: HLA-DP5-positive allogenic irradiated PBMCs as APCs
Description: (§1) Cloning of CD4^+ T cells was performed as described previously ([23]). A single, viable (7AAD^–), CD4^+, CFSE^dim cell was sorted into each well of a 96-well plate, which contained 100 μl of culture medium with feeder cells and cytokines, as described below. Irradiated (30 Gy) peptide-pulsed PBMCs (1.0 × 10^5) isolated from unrelated DPB1*05:01^+ donors were used as feeder cells in the cloning plates. Pooled human serum (5%) and IL-2 (100 U ml^−1) (Peprotech) were added at the indicated final concentrations to AIM-V medium (Life Technologies). Cells were fed every 7 days with fresh cytokine and peptide-pulsed PBMCs. Growing clones were identified by visual inspection, expanded into […] plates, and then tested for antigen specificity by ^3H-thymidine incorporation and cytokine production assays, using HLA-DP5 transfected K562 cells as antigen-presenting cells (APCs). […]
T-cell clones were tested for antigen specificity, using the ^3H-thymidine incorporation assay. […] The cells were then harvested and the incorporated radioactivity was measured by β-scintillation counting. […]
(§2) Fig. 4. […] HLA-restriction of T-cell clones was determined by addingvarious monoclonal antibodies (mAbs): anti-HLA-DR mAb (L243, BioLegend), anti-HLA-DQ mAb (SPV-L3, Abcam) or anti-HLA-DP mAb (B7/21, Abcam), at a final concentration of 10 μg ml^−1. […]

[4] = system: CD4^+ T-cell clones (SU3–2, SU3–3, NM-4, and NM-7); assay: Cytokine production by T-cell clones; assay type: cell-based, human; details: HLA-DP5-transfected K562 cells as APCs, 24 h, Bio-Plex
Description: as §1
Fig. 4. […] HLA-restriction of T-cell clones was determined by addingvarious monoclonal antibodies (mAbs): anti-HLA-DR mAb (L243, BioLegend), anti-HLA-DQ mAb (SPV-L3, Abcam) or anti-HLA-DP mAb (B7/21, Abcam), at a final concentration of 10 μg ml^−1. […] After 24 h, culture supernatants were collected and cytokine levels were measured using the Bio-Plex system (Bio-Rad). […] The T-cell surface activation marker CD137 of TCR(SU3–3)-TG40 and TCR(NM-4)-TG40 (GFP^+ 7AAD^− gated) was analyzed by flow cytometry. […]

[5] = system: TCR(SU3–2)-TG40, TCR(SU3–3)-TG40, TCR(NM-4)-TG40, and TCR(NM-7)-TG40 cells; assay: CD137^+ response of TCR-transfected TG40 cells; assay type: cell-based, mouse; details: in the presence of HLA-DP5-expressing cells
Description: as §1, with “(APCs). HLA-DP5-K562 cells were kindly provided by Dr H. Sugiyama, Osaka University. CD4^+ T-cell clones were stained with a PE-conjugated anti-human CD4 monoclonal antibody (mAb), and single cells were sorted into MicroAmp reaction tubes.” for “(APCs).”
as §2

[6] = system: TCR(SU3–3)-TG40 and TCR(NM-4)-TG40 cells; assay: IL-2 production assay with HLA-DP5-expressing mDC1 cells; details: ELISA
[7] = system: mDC1 cells (mouse antigen-presenting dendritic cell line 1); assay: Uptake of TAMRA-labeled NF-pCj1 into mDC1 cells; details: TAMRA MFI, 0.25–4 μM, 3.5 h at 37°C, flow cytometry
[8] = target: NF-pCj1–HLA-DP5^ec (HLA-DP5α protein and NF-pCj1–HLA-DP5β fusion protein, extracellular regions) (human | Cryptomeria japonica) (UniProt P18632); assay: SPR
[9] = target: pCj1–HLA-DP5^ec (extracellular regions of HLA-DP5 with the nine-residue core peptide pCj1 fused to the β chain) (human | Cryptomeria japonica) (UniProt P18632); assay: SPR
[10] = target: T1, Cry j 1 (NF-pCj1, NF[WT]-pCj1) peptide on HLA-DPA1*02:02 / HLA-DPB1*05:01 (human); assay: cytokine release
T1 peptide: DKSMKVTVAFNQF

[11] = target: T2, Cry j 1 (pCj1) peptide on HLA-DPA1*02:02 / HLA-DPB1*05:01 (human); assay: cytokine release
T2 peptide: KVTVAFNQF

[12] = target: T2, Cry j 1 (pCj1) peptide on …; assay: activation reporter or marker
[13] = target: T1, Cry j 1 (NF-pCj1, NF[WT]-pCj1) peptide …; assay: Kd or kinetics

Molecule: DEEMKVTVAFNQF-GPN-EG2-TAMRA
- effect of NF mutations on amount of cell-surface displayed peptide (in words) ([1]; 1 μM, same peptide dose and HLA-DP5 surface expression, Alexa647 MFI): halved the amounts of the cell-surface displayed peptide

Molecule: DKSMKVTVAFNQF [NF-pCj1]
- CD4^+ T-cell proliferation and clone establishment (in words) [2]: many CD4^+ T cells proliferating
- proliferative response of T-cell clones (in words) [3]: proliferated in response to NF-pCj1
- cytokine production on stimulation (in words) [4]: produced IL-5, IL-10, and IL-13
- response of TCR-transfected TG40 cells by CD137^+ cell number (in words) [5]: responded to NF-pCj1
- IL-2 production by TCR-TG40 cells (in words) ([6]; HLA-DP5-expressing mDC1s pulsed 3 h, coculture 18 h, peptide 7 µg ml^−1 (Fig. 5A), 0.5–15 µg ml^−1 (Fig. 5B, C)): produced IL-2 in response to NF-pCj1

Molecule: DKSMKVTVAFNQF-GPN-EG2-TAMRA [NF-pCj1–TAMRA]
- uptake versus concentration in the medium (in words) [7]: proportional to its concentration in the medium
- amount of surface-displayed peptide per cell versus concentration (in words) ([1]; Alexa 647-labeled anti-TAMRA antibody MFI, 0.25–4 μM): nearly proportional to the peptide concentration in the range of 0.25–4 μM

Molecule: KVTVAFNQF [pCj1]
- CD4^+ T-cell proliferation and clone establishment (in words) [2]: some proliferation; also recorded: it was impossible to maintain the cell growth required to establish HLA-DP5-restricted CD4^+ T-cell clones

Molecule: NF[S(P–2)E/K(P–3)E]-pCj1: double mutation of Ser(–2) and Lys(–3) to Glu in a 13-residue Cry j 1 peptide (NF-pCj1) (DEEMKVTVAFNQF)
- effect of NF mutation on T-cell activation / IL-2 production (in words) ([6]; vs WT NF-pCj1, HLA-DP5-mDC1s, 18 h): dramatically reduced

- Kd [8]: 92.5 µM
- Kd [9]: 90.1 µM
Molecule: TCR(SU3–3)^ec αβ molecule (extracellular regions of the TCR(SU3–3) α chain, residues 1–209, and β chain, residues 1–245, with an artificial interchain disulfide bond) (from UniProt A0A0A6YYJ7)

- binding result [10]: recognises
- binding result [11]: no recognition
B1: TCR(NM-4) (TCR)
alpha TRAV16*01 TRAJ48*01 CDR3: CALRSNFGNEKLTF
beta TRBV5-1*01 TRBJ2-2*01 CDR3: CASSLVVAGVYTGELFF

- binding result [10]: recognises
- binding result [12]: no recognition
B2: TCR(NM-7) (TCR)
alpha TRAV12-3*01 TRAJ27*01 CDR3: CGANAGKSTF
beta TRBV30*01 TRBJ2-7*01 CDR3: CAWSVMVWGSEGEQYF

- binding result [13]: recognises
B3: TCR(SU3–3) (TCR)
alpha TRAV8-3*01 TRAJ34*01 CDR3: CAVAPTYNTDKLIF
beta TRBV7-9*03 TRBJ2-2*01 CDR3: CASSSKGGAGELFF
